Experiments:
[1] = test system: serum 1a (individual 1, early serum); assay type: binding, human
[2] = test system: serum 1b (individual 1, late serum); assay type: binding, human
serum 2 (individual 2) = assay type: binding, human
serum 6 (individual 6) = assay type: binding, human
serum 37 (individual 37) = assay type: binding, human
serum 62 (individual 62) = assay type: binding, human
serum London = assay type: binding, human
serum SARS-yellow = assay type: binding, human
serum SARS-green = assay type: binding, human
[3] = test system: control serum LUMC (pooled serum of ten healthy hospital workers); assay type: binding, human
[4] = test system: control serum Blood-bank (commercial negative donor pooled serum); assay type: binding, human
[5] = test system: rabbit serum obtained by immunizing with SARS-CoV strain Frankfurt 1; assay type: binding
[6] = test system: sera SARS-green, SARS-yellow, 1a, 1b, 2, 6, 37, 62 and London; assay type: binding, human

| Sequence | Binding of serum 1a to linear peptides of Orf14 of SARS-CoV TOR2 [1] | Binding of serum 1b to linear peptides of Orf14 of SARS-CoV TOR2 [2] | Binding of serum 2 to linear peptides of Orf14 of SARS-CoV TOR2 (serum 2 (individual 2)) | Binding of serum 6 to linear peptides of Orf14 of SARS-CoV TOR2 (serum 6 (individual 6)) | Binding of serum 37 to linear peptides of Orf14 of SARS-CoV TOR2 (serum 37 (individual 37)) | Binding of serum 62 to linear peptides of Orf14 of SARS-CoV TOR2 (serum 62 (individual 62)) | Binding of serum London to linear peptides of Orf14 of SARS-CoV TOR2 (serum London) | Binding of serum SARS-yellow to linear peptides of Orf14 of SARS-CoV TOR2 (serum SARS-yellow) | Binding of serum SARS-green to linear peptides of Orf14 of SARS-CoV TOR2 (serum SARS-green) | Control serum LUMC linear peptides [3] | Control serum LUMC looped peptides [3] | Control Serum Blood-Bank Looped peptides [4] | Control serum Blood-bank linear peptides [4] | Rabbit serum linear peptides [5] | Rabbit serum looped peptides [5] | Recognition of the peptide by sera of individuals infected by SARS-CoV, form recognized [6] |
| --- | --- | --- | --- | --- | --- | --- | --- | --- | --- | --- | --- | --- | --- | --- | --- | --- |
| KPLLAPHHVVAVIQE | 0.5 | 0.4 | 0.4 | 0.4 | 0.6 | 0.4 | 0.4 | 0.4 | 0.3 | 0.6 | 0.6 | 0.6 | 0.5 |  |  |  |
| REAEAAVKPLLAPHH | 0.5 | 0.3 | 0.4 | 0.3 | 0.5 | 0.3 | 0.4 | 0.2 | 0.1 | 0.3 | 0.6 | 0.7 | 0.2 |  |  |  |
| HHVVAVIQEIQLLAA | 0.4 | 0.4 | 0.4 | 0.4 | 0.5 | 0.3 | 0.4 | 0.4 | 0.2 | 0.4 | 0.4 | 0.5 | 0.4 |  |  |  |
| APHHVVAVIQEIQLL | 0.5 | 0.4 | 0.4 | 0.4 | 0.5 | 0.3 | 0.3 | 0.3 | 0.1 | 0.6 | 0.5 | 0.6 | 0.3 |  |  |  |
| IQLLAAVGEILLLEW | 0.5 | 0.4 | 0.5 | 0.4 | 0.6 | 0.4 | 0.4 | 0.4 | 0.2 | 0.6 | 0.5 | 0.6 | 0.5 |  |  |  |
| TQREAEAAVKPLLAP | 0.4 | 0.2 | 0.4 | 0.4 | 0.4 | 0.3 | 0.4 | 0.2 | 0.3 | 0.4 | 0.7 | 0.8 | 0.4 |  |  |  |
| GEILLLEWLAEVVKL | 0.5 | 0.4 | 0.4 | 0.5 | 0.6 | 0.5 | 0.6 | 0.3 | 0.3 | 0.5 | 0.5 | 0.5 | 0.6 |  |  |  |
| FWFSLEIQDLEEPCT |  |  |  |  |  |  |  |  |  | 0.3 | 0.8 | 1.1 | 0.5 | 0.1 | 0.5 | recognized in linear and in looped form |
| IFWFSLEIQDLEEPC |  |  |  |  |  |  |  |  |  | 0.7 | 0.8 | 0.8 | 0.8 | 0.3 | 0.5 | recognized in linear and in looped form |
| IMLIIFWFSLEIQDL |  |  |  |  |  |  |  |  |  | 0.7 | 0.4 | 0.6 | 0.8 | 0.9 | 0.1 | recognized in linear and in looped form |
| MLIIFWFSLEIQDLE |  |  |  |  |  |  |  |  |  | 0.9 | 0.8 | 0.7 | 1.0 | 1.7 | 0.5 | recognized in linear and in looped form |
| LIIFWFSLEIQDLEE |  |  |  |  |  |  |  |  |  | 0.7 | 0.9 | 0.7 | 0.8 | 0.5 | 0.7 | recognized in linear and in looped form |
| WFSLEIQDLEEPCTK |  |  |  |  |  |  |  |  |  | 0.5 | 0.5 | 0.7 | 0.6 | 0.0 | 0.4 | recognized in linear and in looped form |

Source: patent US20060154243A1 (priority 2003, published 2006)
